Assay: excess molar enthalpy (molar enthalpy of mixing); xn = mol fraction of the nth substance listed
Settings: Liquid, Flow calorimetry

CC1CO1 (stereo not drawn) [methyloxirane] + CCCC(C)C
323.15 K, 1140 kPa
Settings	excess molar enthalpy [kcal/mol]
x1 = 0.0895	0.0966
x1 = 0.1719	0.1678
x1 = 0.2479	0.2199
x1 = 0.3184	0.2548
x1 = 0.3838	0.2782
x1 = 0.4447	0.2909
x1 = 0.5015	0.2964
x1 = 0.5547	0.2945
x1 = 0.6045	0.2873
x1 = 0.6514	0.2763
x1 = 0.6954	0.2591
x1 = 0.737	0.2397
x1 = 0.7763	0.2177
x1 = 0.8134	0.1924
x1 = 0.8486	0.165
x1 = 0.882	0.135
x1 = 0.9137	0.103
x1 = 0.9439	0.0691
x1 = 0.9726	0.0332

FC(F)C(F)(F)F [pentafluoroethane] + FCF
308.15 K, 5130 kPa
Settings	excess molar enthalpy [kcal/mol]
x2 = 0.088	0.00598
x2 = 0.1692	0.012
x2 = 0.2444	0.0174
x2 = 0.3142	0.0227
x2 = 0.3792	0.0272
x2 = 0.4399	0.0308
x2 = 0.4967	0.0337
x2 = 0.5499	0.0359
x2 = 0.5999	0.037
x2 = 0.647	0.0375
x2 = 0.6913	0.037
x2 = 0.7332	0.0359
x2 = 0.7729	0.0339
x2 = 0.8105	0.0311
x2 = 0.8461	0.0275
x2 = 0.88	0.0232
x2 = 0.9122	0.0182
x2 = 0.9428	0.0124
x2 = 0.9721	0.00621
